Test results from US8247412B2, “Urea derivatives methods for their manufacture and uses thereof” (Galapagos Sasu, priority 2005, dated 2012).
Where a name gives a salt, the structure may show the parent alone.

Key:
[1] = system: serum level of PTH (1-34+1-84); experiment: PTH measurement on intact rats (serum PTH after oral administration); type: in vivo, rats (Sprague-Dawley); details: intact male rats
[2] = system: serum level of PTH (1-34+1-84); experiment: Rats with chronic renal failure (5/6 nephrectomy), serum PTH after oral administration; type: in vivo, rats (Sprague-Dawley)
Protocol: II—Rats with Chronic Renal Failure • Chronic renal failure (CRF) was induced in male rats (220-250 g, Sprague-Dawley, CERJ) by ablation of ⅚ of the total renal mass. • After anaesthesia (Imalgene 1000), the rats were subjected to exeresis of the right kidney and ablation of both ends of the left kidney, representing approximately ⅔ of the organ). • The incision was cauterised by application of dry ice. […] The sera were frozen at −20° C. • After thawing, the serum level of PTH (1-34+1-84) was measured by a radioimmunology test (IRMA kit, rat, Immutopics).

[3] = Rattus norvegicus, 0.5 h, 10 mg/kg, 30 min, read-out: % PTH reduction at 30 min relative to the untreated group

Structure (SMILES): CS(=O)(=O)c1ccc(-c2csc(NC(=O)N(CCC(c3ccccc3)c3ccccc3)CCN3CCOCC3)n2)cc1 [40 a]
- % PTH reduction at time t, relative to the untreated group ([1]; 10 mg/kg, at 2 h): −71% at 2 h

Structure (SMILES): COc1ccc(-c2csc(NC(=O)N(CCC(c3ccccc3)c3ccccc3)CCN3CCOCC3)n2)cc1 [51 a]
- % PTH reduction at time t, relative to the untreated group ([1]; 10 mg/kg, at 2 h): −78% at 2 h

Structure (SMILES): O=C(Nc1nc(-c2ccc(F)cc2)cs1)N(CCC(c1ccccc1)c1ccccc1)CCN1CCOCC1 [54 a]
- % PTH reduction at time t, relative to the untreated group ([1]; 10 mg/kg, at 2 h): −78% at 2 h

Structure (SMILES): O=C(Nc1nc2ccc(Cl)cc2s1)N(CCC(c1ccccc1)c1ccccc1)CCN1CCOCC1 [Example 2, 3-(6-chloro-benzothiazol-2-yl)-1-(3,3-diphenyl-propyl)-1-(2-morpholin-4-yl-ethyl)-urea dihydrochloride]
- change in vivo at 10 mg/kg [2, 3]: -84%
- % PTH reduction at time t, relative to the untreated group ([1]; 30 mg/kg, at 30 mn): −93% at 30 mn

Structure (SMILES): O=C(Nc1nc2ccccc2s1)N(CCC(c1ccccc1)c1ccccc1)CCN1CCOCC1 [Example 8, 3-benzothiazol-2-yl-1-(3,3-diphenyl-propyl)-1-(2-morpholin-4-yl-ethyl)-urea dihydrochloride]
- % PTH reduction at 2 h relative to the untreated group ([2]; 10 mg/kg, 2 h): −90%
- change in vivo at 10 mg/kg [2, 3]: -80%

Structure (SMILES): O=C(Nc1nc(-c2ccc(Cl)cc2)cs1)N(CCC(c1ccccc1)c1ccccc1)CCN1CCOCC1 [Example 25, 3-[4-(4-chloro-phenyl)-thiazol-2-yl]-1-(3,3-diphenyl-propyl)-1-(2-morpholin-4-yl-ethyl)-urea dihydrochloride]
- change in vivo at 10 mg/kg [2, 3]: -74%

Structure (SMILES): Cc1ccc(-c2csc(NC(=O)N(CCC(c3ccccc3)c3ccccc3)CCN3CCOCC3)n2)cc1 [Example 28, 1-(3,3-diphenyl-propyl)-1-(2-morpholin-4-yl-ethyl)-3-(4-p-tolyl-thiazol-2-yl)-urea dihydrochloride]
- change in vivo at 10 mg/kg [2, 3]: -91%

Structure (SMILES): CCOC(=O)c1cc(-c2csc(NC(=O)N(CCC(c3ccccc3)c3ccccc3)CCN3CCOCC3)n2)on1 [Example 31, 5-{2-[3-(3,3-diphenyl-propyl)-3-(2-morpholin-4-yl-ethyl)-ureido]-thiazol-4-yl}-isoxazole-3-carboxylic acid ethyl ester dihydrochloride]
- change in vivo at 10 mg/kg [2, 3]: -85%

Structure (SMILES): O=C(Nc1nc(-c2ccc(N3CCCC3)cc2)cs1)N(CCC(c1ccccc1)c1ccccc1)CCN1CCOCC1 [Example 36, 1-(3,3-diphenyl-propyl)-1-(2-morpholin-4-yl-ethyl)-3-[4-(4-pyrrolidin-1-yl-phenyl)-thiazol-2-yl]-urea trihydrochloride]
- change in vivo at 10 mg/kg [2, 3]: -98%

Structure (SMILES): N#Cc1ccc(-c2csc(NC(=O)N(CCC(c3ccccc3)c3ccccc3)CCN3CCOCC3)n2)cc1 [Example 44, 3-[4-(4-cyano-phenyl)-thiazol-2-yl]-1-(3,3-diphenyl-propyl)-1-(2-morpholin-4-yl-ethyl)-urea dihydrochloride]
- change in vivo at 10 mg/kg [2, 3]: -88%

Structure (SMILES): O=C(Nc1nc(-c2cccnc2)cs1)N(CCC(c1ccccc1)c1ccccc1)CCN1CCOCC1 [Example 47, 1-(3,3-diphenyl-propyl)-1-(2-morpholin-4-yl-ethyl)-3-(4-pyridin-3-yl-thiazol-2-yl)-urea trihydrochloride]
- change in vivo at 30 mg/kg ([2]; Rattus norvegicus, 0.5 h, 30 mg/kg, 30 min, read-out: % PTH reduction at 30 min relative to the untreated group): -96%

Structure (SMILES): Cc1ccc(-c2csc(NC(=O)N(CCC(c3ccccc3)c3ccccc3)CCN3CCOCC3)n2)o1 [Example 60, 1-(3,3-diphenyl-propyl)-3-[4-(5-methyl-furan-2-yl)-thiazol)-2-yl]-1-(2-morpholin-4-yl-ethyl)-urea dihydrochloride]
- change in vivo at 10 mg/kg [2, 3]: -87%
